Counter-ions that a name gives are not always drawn.
Tests used:
[1] = MTS tetrazolium dye uptake cell viability assay (primary assay); assay type: cell-based, human; details: human, HepG2 2.2.15 cells
Method: (§1) Briefly, HepG2 2.2.15 cells are plated in 96-well microtiter plates at 1.5×10^4 cells/well in Dulbecco's Modified Eagle's Medium supplemented with 2% FBS, 380 μg/mL G418, 2.0 mM L-Glutamine, 100 units/mL Penicillin, 100 μg/mL Streptomycin, and 0.1 mM non-essential amino acids. Only the interior wells are utilized to reduce “edge effects” observed during cell culture; the exterior wells are filled with complete medium to help minimize sample evaporation. After 16-24 hours the confluent monolayer of HepG2 2.2.15 cells is washed and the medium is replaced with complete medium containing various concentrations of a test compound in triplicate Lamivudine (3TC) is used as the positive control, while media alone is added to cells as a negative control (virus control, VC). Three days later the culture medium is replaced with fresh medium containing the appropriately diluted test compounds. Six days following the initial administration of the test compound, the cell culture supernatant is collected, treated with pronase and then used in a real-time quantitative TaqMan qPCR assay. The PCR-amplified HBV DNA is detected in real-time by monitoring increases in fluorescent signal that result from the exonucleolytic degradation of a quenched fluorescent probe molecule that hybridizes to the amplified HBV DNA. For each PCR amplification, a standard curve is simultaneously generated using dilutions of purified HBV DNA. Antiviral activity is calculated from the reduction in HBV DNA levels (EC50 & EC90 values determined). A tetrazolium dye (MTS; 3-(4,5-dimethylthiazol-2-yl)-5-(3-carboxy-methoxyphenyl)-2-(4-sulfophenyl)-2H-tetrazolium; CellTiter®96 Reagent, Promega) uptake assay is then employed to measure cell viability, which is used to calculate toxicity (CC50). The Selectivity Index (SI50) is calculated as CC50/IC50.

[2] = test system: HBV wild-type strain ayw1 in HepG2 2.2.15 cells; assay: microbe, parasite or virus in culture; assay type: cell-based; details: Hepatitis B virus
Method: (§2) The primary anti-HBV assay is performed as previously described (Korba, B F and Milman, G. A cell culture assay for compound which inhibit hepatitis B virus replication. Antiviral Res. 1991, 15, 217-228; and Korba, B F and Gerin, J L. Use of a standardized cell culture assay to assess activities of nucleoside analogs again hepatitis B virus replication. Antiviral Res. 1992, 19, 55-70) with modifications to use real-time qPCR (TaqMan) to measure extracellular HBV DNA copy number associated with virions released from HepG2 2.2.15 cells. The HepG2 2.2.15 cell line is a stable human hepatoblastoma cell line that contains two copies of the HBV wild-type strain ayw1 genome and constitutively produces high levels of HBV. Antiviral compounds blocking any late step of viral replication such as transcription, translation, pregenome encapsidation, reverse transcription, particle assembly and release can be identified and characterized using this cell line.
Briefly, HepG2 2.2.15 cells are plated in 96-well microtiter plates at 1.5×10^4 cells/well in Dulbecco's Modified Eagle's Medium supplemented with 2% FBS, 380 μg/mL G418, 2.0 mM L-Glutamine, 100 units/mL Penicillin, 100 μg/mL Streptomycin, and 0.1 mM non-essential amino acids. Only the interior wells are utilized to reduce “edge effects” observed during cell culture; the exterior wells are filled with complete medium to help minimize sample evaporation. After 16-24 hours the confluent monolayer of HepG2 2.2.15 cells is washed and the medium is replaced with complete medium containing various concentrations of a test compound in triplicate Lamivudine (3TC) is used as the positive control, while media alone is added to cells as a negative control (virus control, VC). Three days later the culture medium is replaced with fresh medium containing the appropriately diluted test compounds. Six days following the initial administration of the test compound, the cell culture supernatant is collected, treated with pronase and then used in a real-time quantitative TaqMan qPCR assay. The PCR-amplified HBV DNA is detected in real-time by monitoring increases in fluorescent signal that result from the exonucleolytic degradation of a quenched fluorescent probe molecule that hybridizes to the amplified HBV DNA. For each PCR amplification, a standard curve is simultaneously generated using dilutions of purified HBV DNA. Antiviral activity is calculated from the reduction in HBV DNA levels (EC50 & EC90 values determined). A tetrazolium dye (MTS; 3-(4,5-dimethylthiazol-2-yl)-5-(3-carboxy-methoxyphenyl)-2-(4-sulfophenyl)-2H-tetrazolium; CellTiter®96 Reagent, Promega) uptake assay is then employed to measure cell viability, which is used to calculate toxicity (CC50). The Selectivity Index (SI50) is calculated as CC50/IC50. […]

[3] = test system: HBV wild-type strain ayw1 in HepG2 2.2.15 cells; assay: Primary anti-HBV assay: extracellular HBV DNA copy number by real-time qPCR (TaqMan); assay type: cell-based, Hepatitis B virus
Method: as §2, §1

HIV-2 = details: cited from earlier work
HIV-1 = details: cited from earlier work
[4] = read-out: CC50 (cellular cytotoxicity); cited from earlier work
in vitro = assay type: cell-based; details: human; HepG2 2.2.15 cells, secondary assay
Method: Briefly, HepG2 2.2.15 cells are plated in 96-well microtiter plates at 1.5×10^4 cells/well in Dulbecco's Modified Eagle's Medium supplemented with 2% FBS, 380 μg/mL G418, 2.0 mM L-Glutamine, 100 units/mL Penicillin, 100 μg/mL Streptomycin, and 0.1 mM non-essential amino acids. Only the interior wells are utilized to reduce “edge effects” observed during cell culture; the exterior wells are filled with complete medium to help minimize sample evaporation. After 16-24 hours the confluent monolayer of HepG2 2.2.15 cells is washed and the medium is replaced with complete medium containing various concentrations of a test compound in triplicate Lamivudine (3TC) is used as the positive control, while media alone is added to cells as a negative control (virus control, VC). […] Six days following the initial administration of the test compound, the cell culture supernatant is collected, treated with pronase and then used in a real-time quantitative TaqMan qPCR assay. The PCR-amplified HBV DNA is detected in real-time by monitoring increases in fluorescent signal that result from the exonucleolytic degradation of a quenched fluorescent probe molecule that hybridizes to the amplified HBV DNA. […] Antiviral activity is calculated from the reduction in HBV DNA levels (EC50 & EC90 values determined). […] The Selectivity Index (SI50) is calculated as CC50/IC50. […]

HepG2 2.2.15 cells = assay: MTS tetrazolium dye uptake cell viability assay (primary assay); assay type: cell-based, human
Method: as §1

[5] = Hepatitis B virus, 144 h, reduction in extracellular HBV DNA, HepG2 2.2.15 cells, six days, read-out: EC50
[6] = Hepatitis B virus, 144 h, reduction in extracellular HBV DNA, HepG2 2.2.15 cells, six days, read-out: EC90
[7] = Hepatitis B virus, HepG2 2.2.15, 144 h

| SMILES | CC50 at 6 days [1] | EC50 [3, 5] | EC90 [3, 6] | EC50 [3, 7] | EC90 [3, 7] | further results |
| --- | --- | --- | --- | --- | --- | --- |
| Nc1ccn([C@@H]2CS[C@H](CO)O2)c(=O)n1 [3TC (Lamivudine), Lamivudine, reference compound] | > 2 µM | 0.03 µM | > 2 µM | – | – | EC50 ([2]; reduction in intracellular HBV DNA, HepG2 2.2.15 cells, read-out: EC50): < 0.01 µM; EC90 ([2]; reduction in intracellular HBV DNA, HepG2 2.2.15 cells, read-out: EC90): > 2 µM |
| Nc1ncnc2c1ncn2[C@H]1C[C@@H](OCP(=O)(O)O)CO1 [PMDTA, 1′α-(Adenin-9-yl)-2′-deoxy-3′-O-phosphonomethyl-L-threose triethylammonium salt, reference compound] | > 100 µM | 0.5 µM | > 100 µM | – | – | EC50 (HIV-2; read-out: EC50 value against HIV-2): 2.53 µM; EC50 (HIV-1; read-out: EC50 value against HIV-1): 2.53 µM; CC50 [4]: > 316 µM |
| Cc1cn([C@H]2C[C@@H](OCP(=O)(O)O)CO2)c(=O)[nH]c1=O [PMDTT, 1′α-(Thymin-1-yl)-2′-deoxy-3′-O-phosphonomethyl-L-threose triethylammonium salt, reference compound] | > 100 µM | 40.2 µM | > 100 µM | – | – | IC50 (HIV-2; read-out: IC50 value against HIV-2): 6.59 µM; IC50 (HIV-1; read-out: IC50 value against HIV-1): 6.59 µM; CC50 [4]: > 343 µM |
| CC(C)OC(=O)[C@H](C)NP(=O)(CO[C@H]1CO[C@@H](n2cnc3c(N)ncnc32)C1)Oc1ccccc1 (some centres unmarked) [compound 17] | > 10 µM | – | – | 0.03 µM | > 10 µM | – |
| CC(C)CCOC(=O)C[C@H](NP(=O)(CO[C@H]1CO[C@@H](n2cnc3c(N)ncnc32)C1)Oc1ccccc1)C(=O)OCCC(C)C (some centres unmarked) [compound 18] | 55.5 µM | – | – | 0.01 µM | 0.98 µM | EC50 ([2]; HepG2 2.2.15): < 0.01 µM; EC90 ([2]; HepG2 2.2.15): 0.36 µM; CC50 at 6 days (in vitro): 35.2 µM |
| Cc1cn([C@H]2C[C@@H](OCP(=O)(N[C@@H](C)C(=O)OC(C)C)Oc3ccccc3)CO2)c(=O)[nH]c1=O (some centres unmarked) [compound 20] | > 100 µM | – | – | 0.26 µM | > 10 µM | – |
| Cc1cn([C@H]2C[C@@H](OCP(=O)(N[C@@H](CC(=O)OCCC(C)C)C(=O)OCCC(C)C)Oc3ccccc3)CO2)c(=O)[nH]c1=O (some centres unmarked) [compound 21] | 59.6 µM | – | – | 0.25 µM | > 10 µM | – |
| CC(C)OC(=O)[C@H](C)NP(=O)(CO[C@H]1CO[C@@H](n2ccc(N)nc2=O)C1)Oc1ccccc1 (stereo partly drawn) [compound 32, 1′α-(Cytosin-1-yl)-2′-deoxy-3′-O—{[N-(isopropyl-L-alaninate)](phenoxy)-methylphosphonoamidate}-L-threose] | > 100 µM | – | – | 47.9 µM | > 100 µM | – |
| CCCOC(=O)[C@H](Cc1ccccc1)NP(=O)(CO[C@H]1CO[C@@H](n2cnc3c(=O)[nH]c(N)nc32)C1)N[C@@H](Cc1ccccc1)C(=O)OCCC [compound 39] | > 100 µM | > 100 µM | > 100 µM | – | – | – |
| CC(C)OC(=O)[C@H](C)NP(=O)(CO[C@H]1CO[C@@H](n2cnc3c(=O)[nH]c(N)nc32)C1)Oc1ccccc1 (some centres unmarked) [compound 40] | > 100 µM | – | – | > 100 µM | > 100 µM | – |
| CC(C)OC(=O)[C@H](C)NP(=O)(COC1COC(n2cnc3c(=O)[nH]c(N)nc32)C1)Oc1ccccc1 (stereo partly drawn) [compound 41, 1′α-(Guanin-9-yl)-2′-deoxy-3′-O—{[N-(isopropyl-L-alaninate)](phenoxy)-methylphosphonoamidate}-L-threose] | – | – | – | – | – | CC50 (HepG2 2.2.15 cells): > 100 µM; EC50 ([3]; reduction in extracellular HBV DNA, HepG2 2.2.15 cells, six days, read-out: EC50): > 100 µM; EC90 ([3]; reduction in extracellular HBV DNA, HepG2 2.2.15 cells, six days, read-out: EC90): > 100 µM |

Source: US10087209B2, “Antiviral compounds, a process for their preparation, and their use for treating viral infections” (KU LEUVEN RESEARCH & DEVELOPMENT, priority 2015, dated 2018)
